Test results as given in PubChem BioAssay (NCI).
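The concentration for 50% growth inhibition is given as GI50. At the TGI there is no net growth.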

Columns and labels:
Experiment in all cases: growth of human tumour cells (NCI), 384-well format
[1] = tested on: HL-60(TB) leukemia
[2] = tested on: COLO 205 colon
[3] = tested on: HT29 colon
[4] = tested on: IGROV1 ovarian
[5] = tested on: SF-539 CNS
[6] = tested on: DU-145 prostate
[7] = tested on: OVCAR-3 ovarian
[8] = tested on: HOP-92 NSCLC
[9] = tested on: CAKI-1 renal
[10] = tested on: BT-549 breast
[11] = tested on: PC-3 prostate
[12] = tested on: MCF7 breast
[13] = tested on: OVCAR-5 ovarian
[14] = tested on: A498 renal
[15] = tested on: NCI-H522 lung
[16] = tested on: M14 melanoma
[17] = tested on: OVCAR-8 ovarian
[18] = tested on: SK-MEL-5 melanoma
[19] = tested on: CCRF-CEM leukemia
[20] = tested on: UACC-257 melanoma
[21] = tested on: HCT-15 colon
[22] = tested on: SK-MEL-2 melanoma
[23] = tested on: MALME-3M melanoma
[24] = tested on: ACHN renal
[25] = tested on: MOLT-4 leukemia
[26] = tested on: MDA-MB-231 breast
[27] = tested on: RXF 393 renal
[28] = tested on: NCI-H322M lung
[29] = tested on: SF-295 CNS
[30] = tested on: NCI-H23 lung
[31] = tested on: MDA-MB-468 breast
[32] = tested on: HOP-62 NSCLC
[33] = tested on: HCT-116 colon
[34] = tested on: A549 NSCLC
[35] = tested on: MDA-MB-435 melanoma
[36] = tested on: SW-620 colon
[37] = tested on: K-562 leukemia
[38] = tested on: HCC-2998 colon
[39] = tested on: SR leukemia
[40] = tested on: LOX IMVI melanoma
[41] = tested on: SN12C renal
[42] = tested on: SK-MEL-28 melanoma
[43] = tested on: SNB-19 CNS
[44] = tested on: UO-31 renal
[45] = tested on: NCI-H460 NSCLC
[46] = tested on: T-47D breast
[47] = tested on: RPMI-8226 leukemia
[48] = tested on: NCI/ADR-RES ovarian
[49] = tested on: OVCAR-4 ovarian
[50] = tested on: SK-OV-3 ovarian
[51] = tested on: KM12 colon
[52] = tested on: 786-0 renal
[53] = tested on: SF-268 CNS
[54] = tested on: TK-10 renal
[55] = tested on: UACC-62 melanoma
[56] = tested on: U251 glioblastoma
[57] = tested on: NCI-H226 lung

SMILES: Cc1c(C)n(CCCN2CCN(C)CC2)c2ccc(Oc3cccc(C(=O)N4CCN(CCc5ccc(F)cc5)CC4)c3)cc12
- GI50 [1]: 2030 nM
- TGI [1]: 3.46 µM
- GI50 [2]: 1680 nM
- TGI [2]: 3.07 µM
- GI50 [3]: 1450 nM
- TGI [3]: 2800 nM
- GI50 [4]: 1580 nM
- TGI [4]: 2940 nM
- GI50 [5]: 1610 nM
- TGI [5]: 2980 nM
- GI50 [6]: 1730 nM
- TGI [6]: 3.13 µM
- GI50 [7]: 1610 nM
- TGI [7]: 2970 nM
- GI50 [8]: 1430 nM
- TGI [8]: 2740 nM
- GI50 [9]: 1510 nM
- TGI [9]: 2850 nM
- GI50 [10]: 1320 nM
- TGI [10]: 2600 nM
- GI50 [11]: 1650 nM
- TGI [11]: 3.02 µM
- GI50 [12]: 1720 nM
- TGI [12]: 3.11 µM
- GI50 [13]: 1660 nM
- TGI [13]: 3.03 µM
- GI50 [14]: 1520 nM
- TGI [14]: 2860 nM
- GI50 [15]: 1680 nM
- TGI [15]: 3.05 µM
- GI50 [16]: 1600 nM
- TGI [16]: 2960 nM
- GI50 [17]: 1620 nM
- TGI [17]: 3000 nM
- GI50 [18]: 1280 nM
- TGI [18]: 2550 nM
- GI50 [19]: 1630 nM
- TGI [19]: 2990 nM
- GI50 [20]: 889 nM
- TGI [20]: 2100 nM
- GI50 [21]: 1430 nM
- TGI [21]: 2750 nM
- GI50 [22]: 1760 nM
- TGI [22]: 3.14 µM
- GI50 [23]: 1410 nM
- TGI [23]: 2710 nM
- GI50 [24]: 1610 nM
- TGI [24]: 2980 nM
- GI50 [25]: 1810 nM
- TGI [25]: 3.2 µM
- GI50 [26]: 1910 nM
- TGI [26]: 3.32 µM
- GI50 [27]: 1420 nM
- TGI [27]: 2730 nM
- GI50 [28]: 1640 nM
- TGI [28]: 3.01 µM
- GI50 [29]: 1800 nM
- TGI [29]: 3.2 µM
- GI50 [30]: 1500 nM
- TGI [30]: 2830 nM
- GI50 [31]: 1390 nM
- TGI [31]: 2690 nM
- GI50 [32]: 1630 nM
- TGI [32]: 3000 nM
- GI50 [33]: 1470 nM
- TGI [33]: 2800 nM
- GI50 [34]: 1600 nM
- TGI [34]: 2980 nM
- GI50 [35]: 1720 nM
- TGI [35]: 3.11 µM
- GI50 [36]: 1770 nM
- TGI [36]: 3.19 µM
- GI50 [37]: 1430 nM
- TGI [37]: 2760 nM
- GI50 [38]: 1430 nM
- TGI [38]: 2740 nM
- GI50 [39]: 1460 nM
- TGI [39]: 2790 nM
- GI50 [40]: 2090 nM
- TGI [40]: 3.54 µM
- GI50 [41]: 1630 nM
- TGI [41]: 2990 nM
- GI50 [42]: 1680 nM
- TGI [42]: 3.06 µM
- GI50 [43]: 1710 nM
- TGI [43]: 3.1 µM
- GI50 [44]: 1610 nM
- TGI [44]: 2970 nM
- GI50 [45]: 1850 nM
- TGI [45]: 3.32 µM
- GI50 [46]: 1490 nM
- TGI [46]: 2820 nM
- GI50 [47]: 1300 nM
- TGI [47]: 2560 nM
- GI50 [48]: 1570 nM
- TGI [48]: 2920 nM
- GI50 [49]: 1750 nM
- TGI [49]: 3.13 µM
- GI50 [50]: 1520 nM
- TGI [50]: 2860 nM
- GI50 [51]: 1720 nM
- TGI [51]: 3.12 µM
- GI50 [52]: 1520 nM
- TGI [52]: 2870 nM
- GI50 [53]: 1780 nM
- TGI [53]: 3.18 µM
- GI50 [54]: 1590 nM
- TGI [54]: 2940 nM
- GI50 [55]: 1780 nM
- TGI [55]: 3.17 µM
- GI50 [56]: 1700 nM
- TGI [56]: 3.1 µM
- GI50 [57]: 1590 nM
- TGI [57]: 2940 nM
